PMC4906374, “Global Profiling and Inhibition of Protein Lipidation in Vector and Host Stages of the Sleeping Sickness Parasite Trypanosoma brucei” (ACS Infectious Diseases, 2016)

Biological target: T1, TbNMT (Trypanosoma brucei, UniProt Q388H8)
T1 construct: gene Tb10.61.2550; native full-length enzyme in intact bloodstream form parasites; not purified
T1 sequence (Q388H8 1-446): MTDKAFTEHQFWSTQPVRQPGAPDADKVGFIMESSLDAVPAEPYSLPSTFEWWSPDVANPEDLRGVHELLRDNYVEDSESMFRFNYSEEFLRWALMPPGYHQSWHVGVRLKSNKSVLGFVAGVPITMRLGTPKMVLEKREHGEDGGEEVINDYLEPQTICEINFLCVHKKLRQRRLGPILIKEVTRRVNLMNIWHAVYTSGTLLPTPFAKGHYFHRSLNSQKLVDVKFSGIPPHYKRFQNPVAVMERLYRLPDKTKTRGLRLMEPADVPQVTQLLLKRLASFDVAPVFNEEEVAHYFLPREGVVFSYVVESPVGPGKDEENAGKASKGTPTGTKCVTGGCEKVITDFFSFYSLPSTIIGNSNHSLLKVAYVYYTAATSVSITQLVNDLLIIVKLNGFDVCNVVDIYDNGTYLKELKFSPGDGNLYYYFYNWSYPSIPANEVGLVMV
Assay: in-gel fluorescence of YnMyr tagging (CuAAC, NaOH-treated gels) in intact BSF parasites
Assay type: cell-based
Conditions: read-out: TC50 (tagging-IC50); 100 uM YnMyr, 1 h inhibitor pretreatment, 8 h labelling, 37 °C; whole-parasite value, not isolated enzyme

Cc1noc(C)c1NS(=O)(=O)c1c(Cl)cc(-c2ccnc(N3CCNCC3)c2)cc1Cl [compound 2, inhibitor 2]
IC50: 2570 ± 40 nM
